From patent publication US12552798B2, “Substituted imidazolecarboxamide as Bruton's tyrosine kinase inhibitors” (Henan Zhiwei Biomedicine Co., Ltd., priority 2019, dated 2026)
pIC50: −log10 of the molar value. Like-named read-outs stand apart in the source and are kept apart here.

Experiments:
BTK = BTK (Homo sapiens (Human), UniProt Q06187); test: BTK kinase inhibitory assay (ELISA); format: biochemical; conditions: 3 μmol/L ATP
Description: (§1) BTK, EGFR, BMX, or ITK Inhibitory Assay Procedure for BTK, BMX, EGFR and ITK Inhibitory Assay:
(§2) Kinase inhibitory activities of compounds were evaluated using the Enzyme-linked immunosorbent assay (ELISA). The kinase enzyme of BTK, BMX, EGFR and ITK were purchased from Carna Bioscience (Kobe, Japan). A total of 10 ng/mL antiphosphotyrosine (PY713) antibody (abcam, Cambridge Science Park, UK) was precoated in 96-well ELISA plates. The kinase enzymes in each reaction well were set to BTK (101.25 ng/mL), BMX (90 ng/mL), EGFR (90 ng/mL) or ITK (120 ng/mL) and incubated with indicated compounds in 1× reaction buffer (50 mmol/L HEPES pH 7.4, 20 mmol/L MgCl2, 0.1 mmol/L MnCl2, 1 mmol/L DTT) containing 20 μmol/L (the final concentration of substrate in ITK reaction was 30 μmol/L) substrate (NH2-ETVYSEVRK-biotin) at 25° C. for 1 h. Then, a total of 3 μmol/L ATP was added and the reaction was continued for 2 hrs. The products of reaction were transferred into 96-well ELISA plates containing antibody and incubated at 25° C. for 30 min. After incubation, the wells were washed with PBS and then incubated with horseradish peroxidase […]-conjugated streptavidin. The wells were visualized using 3,3′,5,5′-tetramethylbenzidine (TMB), and chromogenic reaction was ended with 2 mol/L H2SO4, the absorbance was read with a multimode plate reader (PerkinElmer, USA) at 450 nm. IC50 values and curve fits were obtained using Prism (GraphPad Software).

BMX = BMX (Homo sapiens (Human), UniProt P51813); test: BMX kinase inhibitory assay (ELISA); format: biochemical; conditions: for Selectivity Ratio (BTK and BMX): BMX IC50 relative to BTK IC50; for pIC50: ELISA, 3 μmol/L ATP
Chain of BMX (P51813 whole entry): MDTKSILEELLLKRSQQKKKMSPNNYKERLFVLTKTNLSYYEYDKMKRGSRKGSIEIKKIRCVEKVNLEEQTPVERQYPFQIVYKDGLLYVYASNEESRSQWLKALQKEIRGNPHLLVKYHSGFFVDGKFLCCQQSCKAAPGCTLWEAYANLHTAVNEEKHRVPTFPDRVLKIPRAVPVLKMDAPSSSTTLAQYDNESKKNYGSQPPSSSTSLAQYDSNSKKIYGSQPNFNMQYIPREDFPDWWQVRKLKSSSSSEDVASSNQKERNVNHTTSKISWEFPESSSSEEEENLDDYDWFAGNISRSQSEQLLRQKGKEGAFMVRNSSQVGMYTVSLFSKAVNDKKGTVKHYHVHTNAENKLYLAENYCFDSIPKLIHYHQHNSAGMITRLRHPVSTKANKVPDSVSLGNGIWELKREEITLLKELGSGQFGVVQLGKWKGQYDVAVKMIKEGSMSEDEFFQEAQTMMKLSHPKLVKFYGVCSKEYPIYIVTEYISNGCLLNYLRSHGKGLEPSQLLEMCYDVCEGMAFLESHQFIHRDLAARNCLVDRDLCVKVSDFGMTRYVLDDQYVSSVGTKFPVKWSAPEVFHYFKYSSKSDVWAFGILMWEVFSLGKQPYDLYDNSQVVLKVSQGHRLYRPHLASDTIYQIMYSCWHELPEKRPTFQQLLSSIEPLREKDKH
Description: as §1, §2

EGFR = EGFR (Homo sapiens (Human), UniProt P00533); test: EGFR kinase inhibitory assay (ELISA); format: biochemical; conditions: for Selectivity Ratio (BTK and EGFR): EGFR IC50 relative to BTK IC50; for pIC50: ELISA, 3 μmol/L ATP
Chain of EGFR (P00533 25-1210): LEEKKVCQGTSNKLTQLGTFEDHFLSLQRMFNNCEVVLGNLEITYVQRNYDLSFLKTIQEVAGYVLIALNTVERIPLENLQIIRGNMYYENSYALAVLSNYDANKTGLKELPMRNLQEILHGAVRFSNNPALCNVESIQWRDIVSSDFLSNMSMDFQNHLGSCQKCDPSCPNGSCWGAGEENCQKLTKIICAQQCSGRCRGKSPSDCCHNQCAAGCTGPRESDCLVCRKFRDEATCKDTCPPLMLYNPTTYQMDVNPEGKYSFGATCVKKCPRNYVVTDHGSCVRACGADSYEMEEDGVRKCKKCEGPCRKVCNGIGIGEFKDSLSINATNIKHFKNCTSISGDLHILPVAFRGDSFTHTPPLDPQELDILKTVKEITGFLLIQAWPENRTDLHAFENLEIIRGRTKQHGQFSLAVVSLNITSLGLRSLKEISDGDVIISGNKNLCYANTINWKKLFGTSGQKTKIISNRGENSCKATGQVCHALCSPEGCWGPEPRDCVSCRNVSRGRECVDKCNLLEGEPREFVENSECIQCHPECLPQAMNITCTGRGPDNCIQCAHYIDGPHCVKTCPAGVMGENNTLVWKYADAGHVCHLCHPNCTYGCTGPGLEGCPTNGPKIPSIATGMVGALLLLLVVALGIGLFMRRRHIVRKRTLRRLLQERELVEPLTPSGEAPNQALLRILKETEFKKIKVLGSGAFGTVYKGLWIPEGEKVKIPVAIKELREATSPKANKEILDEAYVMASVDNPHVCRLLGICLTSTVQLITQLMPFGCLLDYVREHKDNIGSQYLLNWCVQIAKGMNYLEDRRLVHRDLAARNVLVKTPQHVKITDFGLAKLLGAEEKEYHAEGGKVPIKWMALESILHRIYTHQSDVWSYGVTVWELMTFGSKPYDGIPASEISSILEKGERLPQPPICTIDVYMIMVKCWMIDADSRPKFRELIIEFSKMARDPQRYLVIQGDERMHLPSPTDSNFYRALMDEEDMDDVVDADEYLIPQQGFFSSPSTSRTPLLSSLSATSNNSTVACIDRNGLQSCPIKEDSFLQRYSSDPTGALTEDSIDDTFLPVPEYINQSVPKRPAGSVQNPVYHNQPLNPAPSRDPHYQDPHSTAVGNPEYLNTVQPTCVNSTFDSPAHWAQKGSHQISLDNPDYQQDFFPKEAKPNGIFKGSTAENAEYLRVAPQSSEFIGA
Description: as §1, §2

ITK = ITK (Homo sapiens (Human), UniProt Q08881); test: ITK kinase inhibitory assay (ELISA); format: biochemical; conditions: for pIC50: ELISA, 3 μmol/L ATP; for Selectivity Ratio (BTK and ITK): ITK IC50 relative to BTK IC50
Chain of ITK (Q08881 whole entry): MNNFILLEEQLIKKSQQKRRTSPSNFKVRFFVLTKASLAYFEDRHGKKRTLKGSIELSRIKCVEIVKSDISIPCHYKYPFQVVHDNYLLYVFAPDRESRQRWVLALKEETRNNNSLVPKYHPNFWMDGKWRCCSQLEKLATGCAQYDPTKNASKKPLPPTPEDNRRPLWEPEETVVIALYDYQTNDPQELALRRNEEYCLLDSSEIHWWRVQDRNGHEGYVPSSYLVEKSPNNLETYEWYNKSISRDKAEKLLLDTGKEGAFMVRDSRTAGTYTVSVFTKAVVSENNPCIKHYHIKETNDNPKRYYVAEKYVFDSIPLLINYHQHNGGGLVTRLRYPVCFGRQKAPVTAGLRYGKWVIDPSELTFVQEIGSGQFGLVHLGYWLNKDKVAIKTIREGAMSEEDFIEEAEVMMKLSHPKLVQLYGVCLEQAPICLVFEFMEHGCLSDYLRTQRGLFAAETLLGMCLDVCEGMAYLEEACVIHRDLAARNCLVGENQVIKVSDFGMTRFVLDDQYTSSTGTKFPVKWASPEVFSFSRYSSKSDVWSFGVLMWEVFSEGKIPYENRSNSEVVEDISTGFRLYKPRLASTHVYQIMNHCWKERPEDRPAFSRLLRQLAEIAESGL
Description: as §1, §2

TMD8 = test: Cell antiproliferative activity assay (CellTiter-Glo), TMD8; format: cell-based; conditions: read-out: Cell Growth IC50 (nM) TMD8
Description: (§3) Cell Antiproliferative Activity Assay
(§4) Cell antiproliferative activity was evaluated by the CellTiter-Glo (Promega, USA) assay. Make 1000× compounds solution in DMSO, add 1 μl 1000× compounds to […] growth medium to make 20× compounds. Dilute cell suspensions in growth medium to desired density and 95 μl were taken to 96-well plate. Add 5 μl 20× compounds into 96-well plate according to the plate map. Final DMSO concentration in each well was 0.1%. Then the cell was incubated at 37° C., 5% CO2 for 72 hs. Equilibrate the assay plate to room temperature before measurement. Add 20 μl of CellTiter-Glo© Reagent into each well. Mix contents for 2 minutes on an orbital shaker to induce cell lysis. Incubate at room temperature for 10 minutes to stabilize luminescent signal. Record luminescence using EnVision Multilabel Reader (PerkinElmer). Cell viability (CV %) was calculated relative to vehicle (DMSO) treated control wells using following formula: Cell viability (%)=(RLU compound−RLU blank)/(RLU control−RLU blank)*100%. The IC50 values were calculated using GraphPad Prism 6.0 software, fitting to a 4-parameter equation to generate concentration response curves. All assays were conducted with three parallel samples and three repetitions.

Ramos = test: Cell antiproliferative activity assay (CellTiter-Glo), Ramos; format: cell-based; conditions: 72 hs, read-out: Cell Growth IC50 (nM) Ramos
Description: as §3, §4

MOLM-13 = test: Cell antiproliferative activity assay (CellTiter-Glo), MOLM-13; format: cell-based; conditions: Homo sapiens; MOLM-13, 72 hs; read-out: Cell Growth IC50 (nM) MOLM-13
Description: as §3, §4

293T = test: Cell antiproliferative activity assay (CellTiter-Glo), 293T; format: cell-based; conditions: 72 hs, read-out: Cell Growth IC50 (nM) 293T
Description: as §3, §4

[1] = PK properties assay in SD rats; format: in vivo; conditions: rat, plasma
Description: Six SD rats were divided into two groups, and compound was administered by gavage and tail vein injection. The intravenous injection group was administered 2 min, 5 min, 15 min, 30 min, 1 h, 2 h, 4 h, 6 h, 8 h, and 12 h after administration. 0.25 mL of blood samples were collected from the posterior orbital venous plexus at 5 min, 15 min, 30 min, 1 h, 2 h, 4 h, 6 h, 8 h, 12 h, and 24 h after administration. LC-MS/MS method was used to determine the concentration of compound in plasma samples from SD rats, and the pharmacokinetic parameters were calculated using WinNolin software.

Chain of BTK (Q06187 whole entry): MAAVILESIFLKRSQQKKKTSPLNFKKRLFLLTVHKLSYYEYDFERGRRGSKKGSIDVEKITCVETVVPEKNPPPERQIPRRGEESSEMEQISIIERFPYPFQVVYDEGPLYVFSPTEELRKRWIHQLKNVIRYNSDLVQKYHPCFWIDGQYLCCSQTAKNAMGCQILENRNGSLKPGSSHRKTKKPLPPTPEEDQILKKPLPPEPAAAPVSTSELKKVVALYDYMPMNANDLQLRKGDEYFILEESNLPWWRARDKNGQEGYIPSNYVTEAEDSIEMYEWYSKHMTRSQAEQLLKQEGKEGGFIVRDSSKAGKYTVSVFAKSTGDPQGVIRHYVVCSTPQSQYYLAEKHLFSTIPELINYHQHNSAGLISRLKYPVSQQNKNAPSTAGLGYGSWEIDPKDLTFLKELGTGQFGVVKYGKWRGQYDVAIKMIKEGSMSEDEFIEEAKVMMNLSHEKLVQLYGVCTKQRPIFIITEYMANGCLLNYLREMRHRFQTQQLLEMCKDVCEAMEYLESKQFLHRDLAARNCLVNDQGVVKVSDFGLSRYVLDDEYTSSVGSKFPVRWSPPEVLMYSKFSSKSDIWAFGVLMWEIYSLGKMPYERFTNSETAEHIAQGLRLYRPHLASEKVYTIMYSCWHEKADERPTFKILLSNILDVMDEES

SMILES	pIC50 (BTK)	Selectivity Ratio (BTK and BMX) (BMX)	pIC50 (BMX)	Selectivity Ratio (BTK and EGFR) (EGFR)	pIC50 (EGFR)	pIC50 (ITK)	Selectivity Ratio (BTK and ITK) (ITK)	IC50 (Ramos) [nM]	IC50 (MOLM-13) [nM]	Vd ([1]; iv 5 mg/kg) [L/kg]	clearance ([1]; iv 5 mg/kg) [L/h/kg]	half-life ([1]; iv 5 mg/kg) [min]	AUC ([1]; po 5 mg/kg) [µg·h/mL]	Cmax ([1]; po 5 mg/kg) [µg/mL]	bioavailability ([1]; po 5 mg/kg) [%]	half-life ([1]; po 5 mg/kg) [min]	IC50 (Ramos; Homo sapiens) [nM]	IC50 (TMD8; TMD8, 72 hs) [nM]	IC50 (293T; Homo sapiens, HEK-293T) [nM]	further results
NC(=O)c1c(-c2ccc(Oc3ccccc3)cc2)nc2n1NCCC2C1CCN(C(=O)/C=C/C(F)(F)F)CC1 (single isomer, unassigned) [10a (peak 1)]	8.17	3.12	7.68	365.37	5.61	5.69	301.5	1270	3150	1.6	3.59	18.6	1.39	0.703	47.2	87	–	16.5	1010	–
NC(=O)c1c(-c2ccc(Oc3ccccc3)cc2)nc2n1NCCC2C1CCN(C(=O)/C=C/C(F)(F)F)CC1 (single isomer, unassigned) [10b (peak 2)]	7.21	2.32	6.84	638.75	4.40	< 4.52	>485.4	6440	–	–	–	–	–	–	–	–	–	257	–	IC50 (293T): 1910 nM
NC(=O)c1c(-c2ccc(Oc3ccccc3)cc2)nc2n1NCCC2C1CN(C(=O)/C=C/C(F)(F)F)C1 (centres unmarked) [Example 20, (E)-2-(4-phenoxyphenyl)-8-(1-(4,4,4-trifluorobut-2-enoyl)azetidin-3-yl)-5,6,7,8-tetrahydroimidazo[1,2-b]pyridazine-3-carboxamide]	–	8.79	–	405.5	–	–	1080.6	–	1360	–	–	–	–	–	–	–	294	–	–	–

The next lines start with results.

pIC50 (BTK)	Selectivity Ratio (BTK and BMX) (BMX)	pIC50 (BMX)	Selectivity Ratio (BTK and EGFR) (EGFR)	pIC50 (EGFR)	pIC50 (ITK)	Selectivity Ratio (BTK and ITK) (ITK)	IC50 (Ramos) [nM]	IC50 (MOLM-13) [nM]	Vd ([1]; iv 5 mg/kg) [L/kg]	clearance ([1]; iv 5 mg/kg) [L/h/kg]	half-life ([1]; iv 5 mg/kg) [min]	AUC ([1]; po 5 mg/kg) [µg·h/mL]	Cmax ([1]; po 5 mg/kg) [µg/mL]	bioavailability ([1]; po 5 mg/kg) [%]	half-life ([1]; po 5 mg/kg) [min]	IC50 (Ramos; Homo sapiens) [nM]	SMILES	IC50 (TMD8; TMD8, 72 hs) [nM]	IC50 (293T; Homo sapiens, HEK-293T) [nM]	further results
8.59	5.88	7.82	2.00	8.28	6.32	185.6	–	–	0.959	1.62	24.6	3.43	0.923	52.9	84.6	–	C=CC(=O)N1CCC(C2CCNn3c2nc(-c2ccc(Oc4ccccc4)cc2)c3C(N)=O)CC1 (single isomer, unassigned) [1a (peak 1)]	5.4	8450	–
8.09	6.04	7.31	235.36	5.71	4.97	1314	–	–	–	–	–	–	–	–	–	2760	NC(=O)c1c(-c2ccc(Oc3ccccc3)cc2)nc2n1NCCC2C1CCN(C(=O)/C=C/C(F)(F)F)CC1 (centres unmarked) [Example 10, 2-(4-Phenoxy-phenyl)-8-[1-(4,4,4-trifluoro-but-2-enoyl)-piperidin-4-yl]-5,6,7,8-tetrahydro-imidazo[1,2-b]pyridazine-3-carboxamide]	–	45300	IC50 (TMD8; Homo sapiens, TMD8, TMD8, 72 hs): 51.6 nM
8.09	2.78	7.64	3.43	7.55	6.65	27.40	–	1100	–	–	–	–	–	–	–	725	C#CC(=O)N1CCC(C2CCNn3c2nc(-c2ccc(Oc4ccccc4)cc2)c3C(N)=O)CC1 (centres unmarked) [Example 11, 2-(4-phenoxyphenyl)-8-(1-propioloylpiperidin-4-yl)-5,6,7,8-tetrahydroimidazo[1,2-b]pyridazine-3-carboxamide]	–	–	–
